Assay results taken from PMC10303363, “Synthesis and Preclinical Evaluation of Novel ^68Ga-Labeled (R)-Pyrrolidin-2-yl-boronic Acid-Based PET Tracers for Fibroblast Activation Protein-Targeted Cancer Imaging” (Pharmaceuticals, 2023).
Where “and” joins values, the source holds several entries; their conditions need not be identical. Equal entries are not always repeated.

Tests used:
[1] = test system: HEK293T:hFAP tumor-bearing mice; test: Ex vivo biodistribution study; assay type: in vivo; details: 1 h pi; for Adrenal Glands uptake / Blood uptake / Bone uptake / Brain uptake / Fat uptake / Heart uptake / Kidneys uptake / Large Intestines uptake / Liver uptake / Lungs uptake / Muscle uptake / Pancreas uptake / Small Intestine uptake / Spleen uptake / Stomach uptake / Testes uptake / Thyroid uptake / Tumor uptake / Tumor/Blood uptake ratio / Tumor/Bone uptake ratio / Tumor/Kidney uptake ratio / Tumor/Muscle uptake ratio: n = 4
Method: (§1) Imaging and biodistribution studies were performed using immunodeficient male NRG (NOD.Cg-Rag1tm1Mom Il2rgtm1Wjl/SzJ) mice following previously reported procedures. All experiments were conducted according to the guidelines established by the Canadian Council on Animal Care and approved by Animal Ethics Committee of the University of British Columbia. The mice were subcutaneously inoculated with 7.5 × 10^6 HEK293T:hFAP cells in the left dorsal flank. When the tumors grew to 6–8 mm in diameter, the mice were used for PET/CT imaging and biodistribution studies.
For the biodistribution studies, the mice were injected with ~1–2 MBq of the ^68Ga-labeled tracer, using the exact procedures as described above. At 1 h pi, the mice were euthanized by CO2 inhalation. Blood was withdrawn by a cardiac puncture, and the organs/tissues of interest were collected, weighed and counted using a Perkin Elmer (Waltham, MA, USA) Wizard2 2480 automatic gamma counter. The uptake values in percent of injected dose per gram of tissues (%ID/g) for the different tracers were calculated.
(§2) For blocking studies, HEK293T:hFAP tumor-bearing mice were co-injected [^68Ga]Ga-SB04028 with an excess of FAPI-04 (0.5 mg/mouse) as a competitor. Imaging and biodistribution studies were performed at 1 h pi similar to the unblocked mice.

[2] = test system: HEK-mFAP murine tumor model; set-up: method as in doi:10.1158/1538-7445.AM2022-3303; details: single dose; cited from earlier work
[3] = In vivo stability study (radio-HPLC of plasma and urine); set-up: species or system mice; details: 15 min pi; for fraction of tracer remaining intact in plasma / fraction of tracer remaining intact in urine: male NRG mice, n = 3
Method: In vivo stability studies were performed using healthy (non-tumor-bearing) male NRG mice following previously reported procedures. Briefly, [^68Ga]Ga-SB02055 (6.32 ± 0.16 MBq) and [^68Ga]Ga-SB04028 (9.90 ± 0.26 MBq) were injected via the lateral caudal vein into the mice (n = 3). At 15 min pi, the mice were sedated and euthanized, and urine and blood were collected. The blood was processed to obtain plasma by adding 0.5 mL of acetonitrile to 0.5–0.8 mL of whole blood, then vortexing and centrifuging the resulting mixture on a benchtop mini-centrifuge (Fisherbrand™ Mini-Centrifuge 100–240 V, 50/60 Hz Universal Plug) for 20 min. The supernatant was collected and filtered to give the blood plasma. The plasma and urine samples were analyzed via radio-HPLC by using the same conditions as those used for quality control of these ^68Ga-labeled radioligands.

[4] = test system: HEK293T:hFAP tumor xenograft; test: PET/CT imaging; assay type: in vivo, mice; details: 1 h pi; for tumor on PET/CT image: HEK293T:hFAP tumor xenograft, unblocked
Method: as §1
The PET/CT imaging experiments were carried out using a Siemens Inveon micro PET/CT scanner (Knoxville, TN, USA). Tumor-bearing mice were injected with ~4 to 6 MBq of ^68Ga-labeled tracer through a lateral caudal tail vein under 2.5% isoflurane in oxygen anesthesia, followed by recovery and free roaming in their cage during the uptake period. A 10 min localization CT scan was acquired using 3 overlapping positions to cover the entire mouse. The CT scan was used for the attenuation and scatter correction, and anatomical localization. A list mode acquisition was then performed for 15 min at 1 h pi with the mouse under isoflurane sedation. The images were reconstructed using 3D OSEM/MAP iterative methods.
as §2

FAP = details: cited from earlier work
PREP = details: cited from earlier work
DPPs = details: cited from earlier work
[5] = set-up: method as in PMID 35631416; details: patients, after administrating 740 MBq; cited from earlier work
tumor = test system: tumor; set-up: method as in doi:10.1158/1538-7445.AM2022-3303; details: up to 168 h pi; cited from earlier work
[6] = HEK293T:hFAP tumor-bearing male NRG mice, unblocked
[7] = HEK293T:hFAP tumor-bearing mice
[8] = HEK293T:hFAP tumor-bearing mice, blocked: co-injected with FAPI-04 (0.5 mg/mouse)

CC(NC(=O)c1ccc(CNC(=O)CN2CCN(CC(=O)[O-])CCN(CC(=O)[O-])CCN(CC(=O)[O-])CC2)cc1)C(=O)N1CCCC1B(O)O.[68Ga+3] (centres unmarked) [[^68Ga]Ga-PNT6555, reference compound]
Adrenal Glands uptake [1, 6]: 0.56 ± 0.89 %ID/g | Blood uptake [1, 6]: 0.60 ± 0.04 %ID/g | Bone uptake [1, 6]: 0.45 ± 0.12 %ID/g | Brain uptake [1, 6]: 0.02 ± 0.00 %ID/g | Fat uptake [1, 6]: 0.06 ± 0.02 %ID/g | Heart uptake [1, 6]: 0.17 ± 0.01 %ID/g | Kidneys uptake [1, 6]: 2.29 ± 0.43 %ID/g | Large Intestines uptake [1, 6]: 0.11 ± 0.03 %ID/g | Liver uptake [1, 6]: 1.49 ± 0.11 %ID/g | Lungs uptake [1, 6]: 0.42 ± 0.04 %ID/g | Muscle uptake [1, 6]: 0.12 ± 0.02 %ID/g | Pancreas uptake [1, 6]: 0.13 ± 0.02 %ID/g | Small Intestine uptake [1, 6]: 0.64 ± 0.10 %ID/g | Spleen uptake [1, 6]: 0.21 ± 0.08 %ID/g | Stomach uptake [1, 6]: 0.11 ± 0.05 %ID/g | Testes uptake [1, 6]: 0.16 ± 0.03 %ID/g | Thyroid uptake [1, 6]: 0.26 ± 0.02 %ID/g | Tumor uptake [1, 6]: 6.38 ± 0.45 %ID/g | Tumor/Blood uptake ratio [1, 6]: 10.7 ± 1.29 | Tumor/Bone uptake ratio [1, 6]: 14.9 ± 3.34 | Tumor/Kidney uptake ratio [1, 6]: 2.87 ± 0.59 | Tumor/Muscle uptake ratio [1, 6]: 52.6 ± 5.86

CC(NC(=O)c1ccc(CNC(=O)CN2CCN(CC(=O)[O-])CCN(CC(=O)[O-])CCN(CC(=O)[O-])CC2)cc1)C(=O)N1CCCC1B(O)O.[225Ac+3] (centres unmarked) [[^225Ac]Ac-PNT6555]
anti-tumor efficacy [2]: dose-dependent anti-tumor efficacy

CC(NC(=O)c1ccnc2ccc(OCCCN3CCN(C(=O)CN4CCN(CC(=O)[O-])CCN(CC(=O)[O-])CCN(CC(=O)[O-])CC4)CC3)cc12)C(=O)N1CCCC1B(O)O.[68Ga+3] (centres unmarked) [[^68Ga]Ga-SB04028]
fraction of tracer remaining intact in plasma [3]: 46.6 ± 0.21% | fraction of tracer remaining intact in urine [3]: 53.6 ± 7.11% and > 54% | tumor uptake on PET/CT image upon co-injection with FAPI-04 ([4]; FAPI-04 0.5 mg/mouse): reduced the tumor uptake to the background level | tumor on PET/CT image [4]: clear visualization | reduction of average tumor uptake upon co-injection with FAPI-04 ([1]; FAPI-04 0.5 mg/mouse, HEK293T:hFAP tumor-bearing mice): ~ 97% | Adrenal Glands uptake [1, 6]: 0.14 ± 0.10 %ID/g | Blood uptake [1, 6]: 0.97 ± 0.03 %ID/g | Bone uptake [1, 6]: 0.24 ± 0.09 %ID/g | Brain uptake [1, 6]: 0.02 ± 0.00 %ID/g | Fat uptake [1, 6]: 0.07 ± 0.01 %ID/g | Heart uptake [1, 6]: 0.24 ± 0.02 %ID/g | Kidneys uptake [1, 6]: 2.10 ± 0.33 %ID/g | Large Intestines uptake [1, 6]: 0.13 ± 0.03 %ID/g | Liver uptake [1, 6]: 0.32 ± 0.03 %ID/g | Lungs uptake [1, 6]: 0.59 ± 0.04 %ID/g | Muscle uptake [1, 6]: 0.13 ± 0.01 %ID/g | Pancreas uptake [1, 6]: 0.18 ± 0.02 %ID/g | Small Intestine uptake [1, 6]: 0.34 ± 0.02 %ID/g | Spleen uptake [1, 6]: 0.25 ± 0.04 %ID/g | Stomach uptake [1, 6]: 0.06 ± 0.01 %ID/g | Testes uptake [1, 6]: 0.18 ± 0.02 %ID/g | Thyroid uptake [1, 6]: 0.35 ± 0.00 %ID/g | Tumor uptake [1, 6]: 10.1 ± 0.42 %ID/g | Tumor/Blood uptake ratio [1, 6]: 10.4 ± 0.70 | Tumor/Bone uptake ratio [1, 6]: 48.1 ± 20.5 | Tumor/Kidney uptake ratio [1, 6]: 4.89 ± 0.72 | Tumor/Muscle uptake ratio [1, 6]: 79.9 ± 7.50 | fold higher tumor uptake compared to [68Ga]Ga-PNT6555 [1, 7]: ~ 1.5 fold and > 1.5 fold | Adrenal Glands uptake [1, 8]: 0.09 ± 0.06 %ID/g | Blood uptake [1, 8]: 0.49 ± 0.13 %ID/g | Bone uptake [1, 8]: 0.01 ± 0.00 %ID/g | Brain uptake [1, 8]: 0.02 ± 0.00 %ID/g | Fat uptake [1, 8]: 0.14 ± 0.13 %ID/g | Heart uptake [1, 8]: 0.11 ± 0.00 %ID/g | Kidneys uptake [1, 8]: 2.53 ± 0.57 %ID/g | Large Intestines uptake [1, 8]: 0.08 ± 0.03 %ID/g | Liver uptake [1, 8]: 0.30 ± 0.05 %ID/g | Lungs uptake [1, 8]: 0.78 ± 0.37 %ID/g | Muscle uptake [1, 8]: 0.66 ± 0.12 %ID/g | Pancreas uptake [1, 8]: 0.09 ± 0.02 %ID/g | Small Intestine uptake [1, 8]: 0.34 ± 0.04 %ID/g | Spleen uptake [1, 8]: 0.18 ± 0.02 %ID/g | Stomach uptake [1, 8]: 0.03 ± 0.00 %ID/g | Testes uptake [1, 8]: 0.12 ± 0.01 %ID/g | Thyroid uptake [1, 8]: 0.14 ± 0.01 %ID/g | Tumor uptake [1, 8]: 0.30 ± 0.04 %ID/g | Tumor/Blood uptake ratio [1, 8]: 0.63 ± 0.09 | Tumor/Bone uptake ratio [1, 8]: 33.9 ± 13.3 | Tumor/Kidney uptake ratio [1, 8]: 0.12 ± 0.03 | Tumor/Muscle uptake ratio [1, 8]: 0.46 ± 0.06

[^99mTc]Tc-HYNIC-D-Ala-boroPro [[^99mTc]Tc-iFAP]
effective dose [5]: 2.3 ± 0.4 mSv | mean radiation equivalent dose for the kidney [5]: 5.2 ± 0.8 mSv

O=C([O-])CN1CCN(CC(=O)[O-])CCN(CC(=O)N2CCN(CCCOc3ccc4nccc(C(=O)NCC(=O)N5CCCC5B(O)O)c4c3)CC2)CCN(CC(=O)[O-])CC1.[68Ga+3] (centres unmarked) [[^68Ga]Ga-SB02055]
fraction of tracer remaining intact in plasma [3]: no intact | fraction of tracer remaining intact in urine [3]: 93.5 ± 0.91% and > 93% | plasma fraction of unidentified highly hydrophilic 68Ga-labeled species ([3]; mouse plasma): > 99% | tumor on PET/CT image [4]: negligible | Adrenal Glands uptake [1, 6]: 1.17 ± 1.13 %ID/g | Blood uptake [1, 6]: 3.13 ± 1.25 %ID/g | Bone uptake [1, 6]: 1.14 ± 0.37 %ID/g | Brain uptake [1, 6]: 0.05 ± 0.02 %ID/g | Fat uptake [1, 6]: 0.16 ± 0.05 %ID/g | Heart uptake [1, 6]: 1.23 ± 0.48 %ID/g | Kidneys uptake [1, 6]: 1.74 ± 0.95 %ID/g | Large Intestines uptake [1, 6]: 0.56 ± 0.24 %ID/g | Liver uptake [1, 6]: 0.94 ± 0.27 %ID/g | Lungs uptake [1, 6]: 1.20 ± 0.35 %ID/g | Muscle uptake [1, 6]: 0.63 ± 0.20 %ID/g | Pancreas uptake [1, 6]: 2.07 ± 0.83 %ID/g | Small Intestine uptake [1, 6]: 0.80 ± 0.29 %ID/g | Spleen uptake [1, 6]: 0.85 ± 0.27 %ID/g | Stomach uptake [1, 6]: 0.53 ± 0.36 %ID/g | Testes uptake [1, 6]: 0.26 ± 0.10 %ID/g | Thyroid uptake [1, 6]: 1.49 ± 0.47 %ID/g | Tumor uptake [1, 6]: 1.08 ± 0.37 %ID/g | Tumor/Blood uptake ratio [1, 6]: 0.35 ± 0.03 | Tumor/Bone uptake ratio [1, 6]: 0.95 ± 0.06 | Tumor/Kidney uptake ratio [1, 6]: 0.67 ± 0.15 | Tumor/Muscle uptake ratio [1, 6]: 1.72 ± 0.19 | fold lower tumor uptake than [68Ga]Ga-PNT6555 [1, 7]: ~ 6 fold

CC(NC(=O)c1ccc(CNC(=O)CN2CCN(CC(=O)[O-])CCN(CC(=O)[O-])CCN(CC(=O)[O-])CC2)cc1)C(=O)N1CCCC1B(O)O.[177Lu+3] (centres unmarked) [[^177Lu]Lu-PNT6555]
anti-tumor efficacy [2]: dose-dependent anti-tumor efficacy | tumor retention (tumor): > 10 %ID/g
